Common to all, as to experiment: relative viability (nuclei count vs DMSO), 5 days (fraction); higher = more cells survive
Compound in assay [1]: Cc1cnc(Nc2ccc(OCCN3CCCC3)cc2)nc1Nc1cccc(S(=O)(=O)NC(C)(C)C)c1 [Fedratinib] + CCNC(=O)c1noc(-c2cc(C(C)C)c(O)cc2O)c1-c1ccc(CN2CCOCC2)cc1 [Luminespib] (partner 0.01 µM)
The gist of the method: (§1)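 For relative viability, nuclei counts in treated wells were divided by those in vehicle wells. Lung cancer cell lines had been pin-tool dosed in 1536-well plates the day after seeding and cultured for 5 days, then fixed and stained in one step (final 0.05% Triton X-100, 1% formaldehyde, 1 ug/ml Hoechst) and imaged at 4×. Doses were one drug alone or a fixed anchor-drug dose plus five library-drug doses (not always all listed) in √10 steps, and values are duplicate-plate medians.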

Compound in assay [2]: COC1=CC=C(C=C1)COC2=C(C=C(C=C2)CC3=CN=C(N=C3N)N)OC [GW-2580] + Nc1nc2[nH]cc(CCc3ccc(C(=O)N[C@@H](CCC(=O)O)C(=O)O)cc3)c2c(=O)[nH]1 [Pemetrexed] (partner 0.2 µM)
The gist of the method:
as §1

Compound in assay [3]: Cc1cnc(Nc2ccc(OCCN3CCCC3)cc2)nc1Nc1cccc(S(=O)(=O)NC(C)(C)C)c1 [Fedratinib] + CC(C)C[C@H](NC(=O)[C@H](Cc1ccccc1)NC(=O)c1cnccn1)B(O)O [Bortezomib] (partner 0.002 µM)
The gist of the method:
as §1

Compound in assay [4]: Cc1cnc(Nc2ccc(OCCN3CCCC3)cc2)nc1Nc1cccc(S(=O)(=O)NC(C)(C)C)c1 [Fedratinib] + Nc1nc2[nH]cc(CCc3ccc(C(=O)N[C@@H](CCC(=O)O)C(=O)O)cc3)c2c(=O)[nH]1 [Pemetrexed] (partner 0.2 µM)
The gist of the method:
as §1

Compound in assay [5]: COC1=CC=C(C=C1)COC2=C(C=C(C=C2)CC3=CN=C(N=C3N)N)OC [GW-2580] + CC(=O)Nc1cccc(-n2c(=O)n(C3CC3)c(=O)c3c(Nc4ccc(I)cc4F)n(C)c(=O)c(C)c32)c1 [Trametinib] (partner 0.02 µM)
The gist of the method:
as §1

Compound in assay [6]: Cc1cnc(Nc2ccc(OCCN3CCCC3)cc2)nc1Nc1cccc(S(=O)(=O)NC(C)(C)C)c1 [Fedratinib] + Cc1nc(NC(=O)N2CCC[C@H]2C(N)=O)sc1-c1ccnc(C(C)(C)C(F)(F)F)c1 [Alpelisib] (partner 2 µM)
The gist of the method: as §1

As to UMC-11, the relative viability in assay [1] (first compound 0.1 µM) was found to be 0.984; in assay [1] (first compound 0.3162 µM), 0.887; in assay [1] (first compound 1 µM) it was 0.758; in assay [2] (first compound 0.08 µM), 0.948; in assay [2] (first compound 0.8 µM), 0.939; in assay [2] (first compound 2.53 µM), 0.754. The relative viability in assay [2] (first compound 8 µM) came to 0.718; in assay [3] (first compound 0.1 µM) it was 0.603; in assay [3] (first compound 0.3162 µM) it was 0.758; in assay [3] (first compound 1 µM), 0.396; in assay [4] (first compound 0.1 µM), 0.756; in assay [4] (first compound 0.3162 µM) it was 0.66. For the same cell line, the relative viability worked out at 0.665 in assay [4] (first compound 1 µM); 0.826 in assay [5] (first compound 0.08 µM); 0.866 in assay [5] (first compound 0.8 µM); 0.574 in assay [5] (first compound 2.53 µM); 0.817 in assay [5] (first compound 8 µM); 0.985 in assay [6] (first compound 0.1 µM). Besides, the relative viability stood at 0.876 in assay [6] (first compound 0.3162 µM) and 0.95 in assay [6] (first compound 1 µM).

(Values after the supplement of paper PMC10307832.)
